# Data from patent publication US10336707B2, “Heterocyclic derivatives modulating activity of certain protein kinases” (EUDENDRON S.R.L., priority 2014, dated 2019).
# Where two headings read alike, the source gives them in different places.
# Assays:
# ROS = target: T1, ROS (Homo sapiens, UniProt P08922); assay: Radiometric protein kinase assay (33PanQuinase Activity Assay), ROS; type: biochemical; details: ATP 0.3 μM
# T1 construct: either as full-length or enzymatically active fragments; purchased ProQinase GmbH (Freiburg, Germany)
# Method: (§1) A proprietary radiometric protein kinase assay (33PanQuinase® Activity Assay) developed by ProQuinase GmbH (Freiburg, Germany) was used for measuring the kinase activity of selected protein kinases. All assays were performed in FlashPlates™ wells 96 Perkin Elmer (Boston, Mass., USA) in a reaction volume of 50 μl. The reaction mixture was obtained in 4 steps in the following order: • 1. 10 μl of a solution of non-radioactive ATP in water; • 2. 25 μl of assay buffer/[γ-^33P]-ATP mixture • 3. 5 μl of test sample in 10% DMSO • 4. 10 μl of enzyme/substrate mixture
# (§2) All protein kinases provided by ProQinase were expressed in Sf9 insect cells or in E. coli as recombinant GST-fusion proteins or His-tagged proteins, either as full-length or enzymatically active fragments. […] Kinases from external vendors (CAR=Carna Biosciences Inc.; INV=Life Technologies (Invitrogen Corporation); MIL=Merck-Millipore (Millipore Corporation), were expressed, purified and quality-controlled by virtue of the vendors readings.
# (§3) A stock solution of compound of formula (I) was diluted to 5×10-04M/100% DMSO. […] Incorporation of 33Pi (counting of “cpm”) was determined with a microplate scintillation counter (Microbeta, Wallac). […]
# (§4) Based on each 10 corresponding residual activities, IC50 values were calculated using Prism 5.04 for Windows (Graphpad, San Diego, Calif.). […]
# ALKL1196M (GST-His-tag) = target: T2, ALKL1196M (GST-His-tag) (Homo sapiens, UniProt Q9UM73, L1196M); assay: Radiometric protein kinase assay (33PanQuinase Activity Assay), ALK L1196M; type: biochemical; details: ATP 0.3 μM
# T2 construct: either as full-length or enzymatically active fragments; purchased ProQinase GmbH (Freiburg, Germany)
# Method: as §1, §2, §3, §4
# [1] = test system: NPM/ALK positive SUDHL-1 cells; assay: Tritiated thymidine uptake cell proliferation assay, SUDHL1; type: cell-based; details: Homo sapiens, SU-DHL-1; cell line SUDHL1; read-out: IC50 of cellular proliferation, SUDHL1
# Method: (§5) Method: Tritiated Thymidine Uptake Cell Proliferation Assay
# (§6) The following procedure was used with parent untransformed BaF3 cells, BaF3 cells transformed with the oncogenic fusion protein NPM/ALK, NPM/ALK positive SUDHL-1 cells, NPM/ALK positive SUPM2, ALK-negative HL60 cells, NPM/ALK positive KARPAS-299 cells. The parent untransformed BaF3 cells or Alk-negative HL60 cells are used as controls. Cells were seeded in U-bottomed 96-well plates at 10000 cells/well in a volume of 100 μl in supplemented medium. In the case of the parent untransformed BaF3 cells, the medium was supplemented with IL-3. Serial dilutions of inhibitors were added to the appropriate wells and volumes adjusted to 200 μl. Controls were treated with the equivalent volume of vehicle, DMSO, alone. Plates were incubated at 37° C. for 72 h. 3[H]-thymidine (1 μCi/well) was added for the last 16 h of incubation. Cells were harvested on to paper filters and 3[H]-thymidine incorporation was measured using a scintillation counter (1430 MicroBeta, Wallac, Turku, Finland). The 50% inhibitory concentration (IC50) was defined as the concentration of inhibitor, expressed in nanomolar units, that gave a 50% decrease in 3[H]-thymidine uptake compared with controls.
# (§7) In Table 4 are reported the IC50 of cellular proliferation assays of example 3 versus ALK positive, mutated and negative cell lines.
# RET wild-type = target: T3, RET wild-type (Homo sapiens, UniProt P07949); assay: Radiometric protein kinase assay (33PanQuinase Activity Assay), RET wild-type; type: biochemical; details: ATP 1.0 μM
# T3 construct: either as full-length or enzymatically active fragments; purchased ProQinase GmbH (Freiburg, Germany)
# Method: as §1, §2, §3, §4
# NPM/ALK positive SUPM2 = assay: Tritiated thymidine uptake cell proliferation assay, SUPM2; type: cell-based; details: SUP-M2; cell line SUPM2; read-out: IC50 of cellular proliferation, SUPM2
# Method: as §5, §6, §7
# [2] = target: T4, BaF3 cell line transfected with the oncogenic fusion protein NPM-ALK and expressing the mutation L1196M (Homo sapiens, UniProt Q9UM73, L1196M, cells depend on it); assay: Tritiated thymidine uptake cell proliferation assay, BaF3 NPM-ALK L1196M; type: cell-based, murine
# T4 construct: fused on or other part: P06748 (Nucleophosmin)
# T4 sequence (Q9UM73 whole entry L1196M, the tested form may be a part): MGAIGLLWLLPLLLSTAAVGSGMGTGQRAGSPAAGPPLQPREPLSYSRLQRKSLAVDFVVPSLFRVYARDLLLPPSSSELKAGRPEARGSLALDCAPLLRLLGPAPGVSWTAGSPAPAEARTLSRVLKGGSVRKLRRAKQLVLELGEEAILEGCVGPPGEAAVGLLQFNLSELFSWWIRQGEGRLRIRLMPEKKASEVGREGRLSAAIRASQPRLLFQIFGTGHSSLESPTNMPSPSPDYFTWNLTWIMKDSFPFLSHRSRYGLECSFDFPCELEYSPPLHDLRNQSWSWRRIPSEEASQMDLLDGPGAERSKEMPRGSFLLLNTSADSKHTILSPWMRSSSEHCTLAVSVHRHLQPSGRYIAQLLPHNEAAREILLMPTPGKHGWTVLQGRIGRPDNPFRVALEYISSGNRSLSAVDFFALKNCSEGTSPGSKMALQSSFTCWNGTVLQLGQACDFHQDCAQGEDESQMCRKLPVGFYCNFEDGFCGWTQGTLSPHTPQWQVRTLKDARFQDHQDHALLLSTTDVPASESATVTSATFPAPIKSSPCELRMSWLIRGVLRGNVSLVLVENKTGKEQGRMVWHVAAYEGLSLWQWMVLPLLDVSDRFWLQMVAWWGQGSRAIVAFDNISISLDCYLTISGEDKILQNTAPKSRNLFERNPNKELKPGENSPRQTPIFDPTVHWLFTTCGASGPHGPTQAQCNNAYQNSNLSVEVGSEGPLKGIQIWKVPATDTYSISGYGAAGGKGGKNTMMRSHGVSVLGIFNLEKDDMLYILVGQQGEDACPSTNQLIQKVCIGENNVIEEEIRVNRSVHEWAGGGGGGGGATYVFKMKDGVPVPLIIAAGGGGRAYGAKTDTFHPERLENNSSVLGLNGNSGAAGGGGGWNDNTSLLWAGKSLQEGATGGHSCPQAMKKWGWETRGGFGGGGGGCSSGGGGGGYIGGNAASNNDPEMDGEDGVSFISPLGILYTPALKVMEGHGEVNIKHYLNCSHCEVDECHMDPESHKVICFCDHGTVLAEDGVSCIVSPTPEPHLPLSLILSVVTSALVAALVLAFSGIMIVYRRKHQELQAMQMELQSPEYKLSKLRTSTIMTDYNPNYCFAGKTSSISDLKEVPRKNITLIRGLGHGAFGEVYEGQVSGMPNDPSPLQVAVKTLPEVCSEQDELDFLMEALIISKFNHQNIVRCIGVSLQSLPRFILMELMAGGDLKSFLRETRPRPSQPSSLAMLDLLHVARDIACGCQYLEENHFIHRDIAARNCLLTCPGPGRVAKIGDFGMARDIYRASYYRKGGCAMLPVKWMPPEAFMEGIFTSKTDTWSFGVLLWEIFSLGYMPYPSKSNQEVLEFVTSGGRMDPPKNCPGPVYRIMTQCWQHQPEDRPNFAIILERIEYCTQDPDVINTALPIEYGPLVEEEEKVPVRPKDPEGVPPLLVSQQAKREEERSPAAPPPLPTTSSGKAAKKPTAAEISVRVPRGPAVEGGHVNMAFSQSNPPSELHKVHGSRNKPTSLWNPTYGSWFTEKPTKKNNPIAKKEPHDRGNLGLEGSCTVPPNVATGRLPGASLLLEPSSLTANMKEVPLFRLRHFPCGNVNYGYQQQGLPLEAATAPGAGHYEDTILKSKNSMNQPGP
# T2 sequence (Q9UM73 19-1620 L1196M): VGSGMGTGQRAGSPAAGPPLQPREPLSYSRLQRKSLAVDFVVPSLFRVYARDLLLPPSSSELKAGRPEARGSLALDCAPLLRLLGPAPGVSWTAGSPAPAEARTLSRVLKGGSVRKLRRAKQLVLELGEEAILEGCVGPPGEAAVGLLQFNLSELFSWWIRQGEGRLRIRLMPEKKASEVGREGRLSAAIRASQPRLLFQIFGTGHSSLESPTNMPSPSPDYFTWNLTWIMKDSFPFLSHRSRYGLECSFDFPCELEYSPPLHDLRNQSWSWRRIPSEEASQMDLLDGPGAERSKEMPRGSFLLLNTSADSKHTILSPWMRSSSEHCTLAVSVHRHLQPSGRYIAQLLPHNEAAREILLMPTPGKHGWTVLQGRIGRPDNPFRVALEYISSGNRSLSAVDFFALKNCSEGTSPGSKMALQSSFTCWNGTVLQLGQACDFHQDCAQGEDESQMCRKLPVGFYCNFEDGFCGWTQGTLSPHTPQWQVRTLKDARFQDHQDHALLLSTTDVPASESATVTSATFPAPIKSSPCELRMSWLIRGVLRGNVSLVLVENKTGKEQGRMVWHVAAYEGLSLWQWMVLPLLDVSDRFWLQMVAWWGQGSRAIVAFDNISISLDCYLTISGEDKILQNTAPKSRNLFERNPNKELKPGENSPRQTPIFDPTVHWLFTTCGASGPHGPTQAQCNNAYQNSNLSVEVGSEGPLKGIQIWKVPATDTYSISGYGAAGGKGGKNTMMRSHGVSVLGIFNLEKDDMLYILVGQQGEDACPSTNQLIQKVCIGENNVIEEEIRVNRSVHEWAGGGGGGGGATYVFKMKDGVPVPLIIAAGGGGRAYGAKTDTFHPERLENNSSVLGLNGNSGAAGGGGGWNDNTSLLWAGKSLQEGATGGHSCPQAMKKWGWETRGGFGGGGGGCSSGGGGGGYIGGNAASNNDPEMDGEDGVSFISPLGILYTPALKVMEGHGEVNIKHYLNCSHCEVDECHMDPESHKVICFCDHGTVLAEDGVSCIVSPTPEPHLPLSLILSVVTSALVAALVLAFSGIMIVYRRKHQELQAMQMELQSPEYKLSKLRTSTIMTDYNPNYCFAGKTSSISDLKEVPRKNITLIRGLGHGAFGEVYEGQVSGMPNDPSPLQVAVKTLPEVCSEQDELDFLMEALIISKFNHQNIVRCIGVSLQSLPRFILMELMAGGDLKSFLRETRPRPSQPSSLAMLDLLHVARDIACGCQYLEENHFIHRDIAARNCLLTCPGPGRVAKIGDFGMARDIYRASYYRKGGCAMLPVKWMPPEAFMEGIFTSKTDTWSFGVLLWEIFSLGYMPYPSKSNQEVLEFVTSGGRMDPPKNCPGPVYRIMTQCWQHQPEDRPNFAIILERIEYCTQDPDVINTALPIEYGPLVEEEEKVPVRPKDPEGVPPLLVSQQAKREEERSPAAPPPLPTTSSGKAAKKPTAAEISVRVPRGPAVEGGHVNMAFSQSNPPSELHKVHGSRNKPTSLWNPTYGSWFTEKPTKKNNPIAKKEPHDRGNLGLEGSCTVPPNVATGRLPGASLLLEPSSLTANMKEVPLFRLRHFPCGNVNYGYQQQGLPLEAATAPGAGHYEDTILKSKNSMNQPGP
# T3 sequence (P07949 29-1114): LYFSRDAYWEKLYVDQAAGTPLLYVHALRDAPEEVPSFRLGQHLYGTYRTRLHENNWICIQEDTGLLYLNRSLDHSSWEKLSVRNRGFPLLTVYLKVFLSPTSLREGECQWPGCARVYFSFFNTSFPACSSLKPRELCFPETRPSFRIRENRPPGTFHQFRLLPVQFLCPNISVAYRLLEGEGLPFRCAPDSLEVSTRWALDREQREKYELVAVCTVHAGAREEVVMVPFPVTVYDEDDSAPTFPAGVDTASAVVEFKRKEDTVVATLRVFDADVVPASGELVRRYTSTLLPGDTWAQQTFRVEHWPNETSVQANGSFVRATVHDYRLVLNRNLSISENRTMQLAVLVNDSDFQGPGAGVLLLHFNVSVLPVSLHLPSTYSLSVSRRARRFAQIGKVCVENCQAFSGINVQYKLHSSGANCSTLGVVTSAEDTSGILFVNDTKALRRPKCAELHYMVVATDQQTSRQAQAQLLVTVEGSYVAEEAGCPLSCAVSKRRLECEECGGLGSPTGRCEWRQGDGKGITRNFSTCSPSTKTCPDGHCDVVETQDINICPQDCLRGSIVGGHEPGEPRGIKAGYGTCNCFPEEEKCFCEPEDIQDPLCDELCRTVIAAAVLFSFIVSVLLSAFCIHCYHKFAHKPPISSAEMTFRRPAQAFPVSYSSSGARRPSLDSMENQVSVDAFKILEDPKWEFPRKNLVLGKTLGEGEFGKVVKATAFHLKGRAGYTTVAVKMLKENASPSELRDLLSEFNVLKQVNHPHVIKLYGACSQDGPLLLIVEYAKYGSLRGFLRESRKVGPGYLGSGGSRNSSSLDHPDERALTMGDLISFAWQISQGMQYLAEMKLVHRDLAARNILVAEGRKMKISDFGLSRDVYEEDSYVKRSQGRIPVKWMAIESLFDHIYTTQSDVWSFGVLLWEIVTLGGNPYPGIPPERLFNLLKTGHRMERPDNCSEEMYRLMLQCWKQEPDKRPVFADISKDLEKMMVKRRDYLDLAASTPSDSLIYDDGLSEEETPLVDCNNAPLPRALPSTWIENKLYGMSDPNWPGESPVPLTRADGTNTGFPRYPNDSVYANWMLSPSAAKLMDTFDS
# T1 sequence (P08922 1883-2347 limits assumed): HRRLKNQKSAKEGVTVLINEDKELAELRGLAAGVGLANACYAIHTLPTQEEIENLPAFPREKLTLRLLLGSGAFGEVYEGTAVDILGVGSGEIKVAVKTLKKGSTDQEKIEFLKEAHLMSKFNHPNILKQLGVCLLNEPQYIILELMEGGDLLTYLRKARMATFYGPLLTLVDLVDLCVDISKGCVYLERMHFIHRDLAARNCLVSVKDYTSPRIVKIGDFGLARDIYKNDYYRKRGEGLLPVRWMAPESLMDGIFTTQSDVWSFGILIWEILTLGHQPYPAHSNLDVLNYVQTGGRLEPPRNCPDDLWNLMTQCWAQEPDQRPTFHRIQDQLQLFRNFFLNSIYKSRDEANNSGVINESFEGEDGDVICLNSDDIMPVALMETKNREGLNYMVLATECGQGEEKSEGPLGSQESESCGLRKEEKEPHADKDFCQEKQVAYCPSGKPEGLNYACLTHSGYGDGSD
smiles,measurement,setting,value
"CN1CCN(c2ccc(C(=O)Nc3n[nH]c4cc(-c5ccc(O)cc5)c(Cc5cc(F)cc(F)c5)cc34)c(NC3CCOCC3)c2)CC1 [Example 3, N-[5-[(3,5-difluorophenyl)methyl]-6-(4-hydroxyphenyl)-1H-indazol-3-yl]-4-(4-methylpiperazin-1-yl)-2-(tetrahydropyran-4-ylamino)benzamide]",IC50,ROS,160 nM
same,IC50,ALKL1196M (GST-His-tag),45 nM
same,IC50,[1],36 nM
same,IC50,RET wild-type,120 nM
same,IC50,NPM/ALK positive SUPM2,52 nM
same,GI50,"[2]; averaged IC50 values of cell proliferation inhibition, class letters, read-out: IC50 BaF3 NPM-ALK L1196M cells",1 to 50 nM
same,GI50,"[2]; cell line BaF3 NPM-ALK L1196M, read-out: IC50 of cellular proliferation, BaF3 NPM-ALK L1196M",6 nM
same,% Inhibition BaF3 NPM-ALK L1196M cells,[2]; percentage of inhibition of cell proliferation at 200 nM,83%
